Laboratory results as given in patent US7244595B2, “Method of maintaining or improving a nitrile hydratase activity” (priority 2003, dated 2007).
Values joined by “and” are separate entries in the source; they are usually repeats but may differ in a detail not shown here. Equal values may be shown once.

How the values were obtained:
[1] = biological target: T1, nitrile hydratase (Pseudonocardia thermophila, UniProt Q7SID2+Q7SID3); experiment: Nitrile hydrating activity (acrylamide formed) of wet microorganism contacted with an oxidizing agent in deoxidized water; format: cell-based, Escherichia coli HB101 (MT-10822 strain); design: expressed in transfected cells; host or cells: Escherichia coli HB101 (transformant MT-10822, FERM BP-5785), IPTG-induced
Experimental: (§1) In HPLC analysis of a reaction solution in the Examples, ULTRON 80HG (50×8 φmm) was used as an HPLC column, and 10 mM aqueous phosphate solution was used as a developing solution. Acrylamide and acrylonitrile were detected by absorbance at 220 nm to determine their concentrations.
The resulting microorganism, 0.20 g, was suspended in previously deoxidized pure water in a 100 ml sealable glass container previously sufficiently purged with nitrogen, and potassium ferricyanide was added and suspended as an oxidizing agent at a final concentration shown in Table 1 to give 20.00 g suspension. Separately, an oxidizing agent-free microbial suspension was prepared in the same manner. The microbial suspension was kept at 20° C. for 15 minutes under stirring.
(§2) The reaction was terminated by adding 80 g of 10 mM aqueous phosphoric acid, and then the concentration of acrylamide in the reaction solution was determined by HPLC analysis. Subsequently, the concentration of the microbial suspension based on the dry weight of the microorganism was determined, and then the amount of formed acrylamide per unit dry weight of the microorganism was calculated.
The amount of acrylamide formed per unit dry weight of the microorganism was determined in the same manner as in Example 3 except that in place of potassium ferricyanide, ammonium persulfate was added and suspended as an oxidizing agent at a concentration shown in Table 1.
The microbial suspension was kept at 20° C. under stirring. 0 minute, 10 minutes, 2 hours and 24 hours after the stirring was initiated, a small amount of the microbial suspension was collected, and the amount of formed acrylamide per unit dry weight of the microorganism was determined in the same manner as in Example 3.
Separately, a microbial suspension wherein the oxidizing agent was not added and the pH value was not adjusted was also prepared in the same manner. The microbial suspension was kept at 20° C. for 15 minutes under stirring. The amount of formed acrylamide per unit dry weight of the microorganism was determined in the same manner as in Example 3.
Separately, a microbial suspension wherein the oxidizing agent was not added was also prepared in the same manner. The amount of formed acrylamide per unit dry weight of the microorganism was determined in the same manner as in Example 3.

[2] = biological target: T1, nitrile hydratase
Experimental: as §1
MT-10822 strain (FERM BP-5785, see JP-A 11-253168) having a nitrile hydratase gene introduced into Escherichia coli HB101, deposited by Mitsui Chemicals, Inc., was used as the nitrile hydratase-containing cell in this example.
For culture of this microbial strain, 15.0 L medium having the following composition was prepared in a 30 L culture container and sterilized with high-pressure steam at 121° C. for 20 minutes. Ampicillin was added at a final concentration of 50 μg/ml to this medium, and the microbial strain was inoculated via a platinum loop thereto and cultured at 37° C. at 700 rpm for 20 hours. […]
The reaction was terminated by adding 80 g of 10 mM aqueous phosphoric acid, and then the concentration of acrylamide in the reaction solution was determined by HPLC analysis. Subsequently, the concentration of the microbial suspension was determined on the basis of the dry weight of the microorganism, and then the amount of formed acrylamide per unit dry weight of the microorganism was calculated. […]

[3] = biological target: T1, nitrile hydratase; remark: listed apart in the source
Experimental: as §1, §2
A wet microorganism was obtained in the same manner as in Example 3. […] The suspension was kept at 10° C. under stirring, while the air (40 N-ml/min.) was passed through the gaseous phase in the flask. 0, 1, 2, 3, 7 and 19 days after storage, a part of the microbial suspension was removed. […] The amount of formed acrylamide in each of the collected microbial suspensions per unit dry weight of the microorganism was determined in the same manner as in Example 3.
A wet microorganism was obtained in the same manner as in Example 3. […] The amount of formed acrylamide in each of the collected microbial suspensions per unit dry weight of the microorganism was determined in the same manner as in Example 3.

T1 sequence (Q7SID2 whole entry): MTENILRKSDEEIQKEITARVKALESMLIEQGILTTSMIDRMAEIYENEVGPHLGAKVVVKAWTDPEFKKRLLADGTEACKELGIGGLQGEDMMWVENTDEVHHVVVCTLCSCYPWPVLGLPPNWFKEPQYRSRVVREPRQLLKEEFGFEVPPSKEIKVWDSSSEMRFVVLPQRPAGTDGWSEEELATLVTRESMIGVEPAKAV
T1 sequence (Q7SID3 whole entry): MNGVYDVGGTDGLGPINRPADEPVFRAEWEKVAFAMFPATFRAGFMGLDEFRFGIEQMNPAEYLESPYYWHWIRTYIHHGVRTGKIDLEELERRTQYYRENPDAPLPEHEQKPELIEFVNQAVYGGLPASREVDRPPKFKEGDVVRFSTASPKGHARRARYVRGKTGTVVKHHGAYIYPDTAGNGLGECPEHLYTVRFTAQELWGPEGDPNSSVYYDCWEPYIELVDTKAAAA

| Structure (SMILES) | AMOUNT OF […] (RELATIVE VALUE) [1] [relative value] | nitrile hydrating activity of the nitrile hydratase on contact of the microorganism with the oxidizing agent (in words) [1] | amount of formed acrylamide per unit dry weight of the microorganism (0 hour of storage = 1) [2] | nitrile hydrating activity of the nitrile hydratase on contact with oxygen, depending on the contact time (in words) [3] |
| --- | --- | --- | --- | --- |
| N.N.O=S(=O)(O)OOS(=O)(=O)O [AMMONIUM PERSULFATE, ammonium persulfate] | 1.6 | improved | – | – |
| OO [HYDROGEN PEROXIDE, hydrogen peroxide] | 2.4 | improved | – | – |
| O=O [oxygen] | – | – | 1.1 and 1.0 | improved depending on the contact time |
